In brackets after ≈: the same amount, converted by molar mass.
Tests used:
Assay type in all cases: physicochemical
[1] = Fast stability test (storage on a plate at 40° C. in air, impurity by HPLC); settings: for Impurity / N-demethyl-derivative of CDB-4124: HPLC; for Impurity, Σ (increase Day 0 to Day 10) / N-demethyl-derivative of CDB-4124, Σ (increase Day 0 to Day 10): Σ over 10 days, in the presence of air
Procedure: Amorphous and crystalline forms were stored on a plate at 40° C. in the presence of air for 10 days. Impurity was measured at different times using an HPLC equipment. […]

[2] = Solubility at 25° C. in solvent (MeOH)
Source text: Form I is a monotropic modification of CDB-4124 such as Form II. […] Furthermore, Form I can be transformed into Form II via crystallization from different medium.

[3] = Water adsorption by dynamic vapour sorption (DVS); settings: 25° C., 0%-95% relative humidity, adsorption-desorption
Procedure: Water adsorption properties of the crystalline Form II of CDB-4124 were measured by dynamic vapour sorption technique (DVS). […]

| Compound | Impurity ([1]; Day 0, in the presence of air) | N-demethyl-derivative of CDB-4124 ([1]; Day 0, in the presence of air) | Impurity ([1]; Day 1, in the presence of air) | N-demethyl-derivative of CDB-4124 ([1]; Day 1, in the presence of air) | Impurity ([1]; Day 2, in the presence of air) | N-demethyl-derivative of CDB-4124 ([1]; Day 2, in the presence of air) | Impurity ([1]; Day 6, in the presence of air) | N-demethyl-derivative of CDB-4124 ([1]; Day 6, in the presence of air) | Impurity ([1]; Day 10, in the presence of air) | N-demethyl-derivative of CDB-4124 ([1]; Day 10, in the presence of air) | Impurity, Σ (increase Day 0 to Day 10) [1] | N-demethyl-derivative of CDB-4124, Σ (increase Day 0 to Day 10) [1] | solubility [2] | change of mass as the degree of humidity was increased [3] |
| --- | --- | --- | --- | --- | --- | --- | --- | --- | --- | --- | --- | --- | --- | --- |
| COCC(=O)[C@@]1(OC(C)=O)CC[C@H]2[C@@H]3CCC4=CC(=O)CCC4=C3[C@@H](c3ccc(N(C)C)cc3)C[C@@]21C [Amorphous form, 17α-acetoxy-21-methoxy-11β-[4-N,N-dimethylaminophenyl]-19-norpregna-4,9-diene-3,20-dione, reference compound] | 0.87% | 0.15% | 0.97% | 0.21% | 1.03% | 0.25% | 1.63% | 0.55% | 1.97% | 0.73% | 1.1% | 0.58% | – | – |
| COCC(=O)[C@@]1(OC(C)=O)CC[C@H]2[C@@H]3CCC4=CC(=O)CCC4=C3[C@@H](c3ccc(N(C)C)cc3)C[C@@]21C [Form I, 17α-acetoxy-21-methoxy-11β-[4-N,N-dimethylaminophenyl]-19-norpregna-4,9-diene-3,20-dione, reference compound] | – | – | – | – | – | – | – | – | – | – | – | – | 500 mg/mL (≈ 989 mM) | – |
| COCC(=O)[C@@]1(OC(C)=O)CC[C@H]2[C@@H]3CCC4=CC(=O)CCC4=C3[C@@H](c3ccc(N(C)C)cc3)C[C@@]21C [Form II, 17α-acetoxy-21-methoxy-11β-[4-N,N-dimethylaminophenyl]-19-norpregna-4,9-diene-3,20-dione] | 0.14% | 0.02% | 0.14% | 0.02% | 0.14% | 0.02% | 0.15% | 0.02% | 0.17% | 0.03% | 0.03% | 0.01% | 23 mg/mL (≈ 45.5 mM) | barely changed |
